Here are results for 56 molecules from article PMC9995496, “A screen for MeCP2-TBL1 interaction inhibitors using a luminescence-based assay” (Scientific Reports, 2023).

Counter-ions that a name gives are not always drawn. Numbered stars: 1 amine (or outer) side, 2 acyl side, 3 side chain; on linkers, the order of the positions; unused ones are H or OH. Bridge positions count the residues as written; N and C are the ends. Square brackets hold non-standard residues; d marks the D form. Peptide text beside a SMILES is read from it. I, II: the chains in the order shown. * marks the point of attachment. Actinocin(9to1) = Cc1c2oc3c(C)ccc(C(=O)[*:1])c3nc-2c(C(=O)[*:2])c(N)c1=O; NMeV = CN[C@H](C(=O)O)C(C)C; Cbz = O=C(OCc1ccccc1)*; Sar = CNCC(=O)O

One assay has as its system PRKACA-PRKAR2A interaction (SmBiT-PRKACA / LgBiT-PRKAR2A), protein kinase A. Also noted: NanoLuc complementation counter-screen in cell extract, PRKACA with PRKAR2A, loss of luminescence, detects NanoLuc interference. Particulars: 0.5 h, 20 µM; inhibitor.
On to `CC(C)(O)/C=C/C(=O)[C@](C)(O)[C@H]1[C@H](O)C[C@@]2(C)[C@@H]3CC=C4[C@@H](C=C(O)C(=O)C4(C)C)[C@]3(C)C(=O)C[C@]12C` [UM0141852:01, Cucurbitacin I], for which the “Inh (PKA)” value is -0.1004%.

The assay is the same for the next values; noted with them: counter-screen for NanoLuc interference, 0.5 h, 20 µM, inhibitor, Inh (PKA).
As to `O=C(/C=C/c1cccnc1)NCCCCC1CCN(C(=O)c2ccccc2)CC1` [UM0141821:01, FK866 (APO866)], the “Inh (PKA)” value is 3.817%.

In the case of `Nc1nc2[nH]cc(CCc3ccc(C(=O)N[C@@H](CCC(=O)O)C(=O)O)cc3)c2c(=O)[nH]1` [UM0141829:01, Pemetrexed], the “Inh (PKA)” value is recorded as -0.0222%.

On to `CC(=O)O[C@@]12CO[C@@H]1C[C@H](O)[C@@]1(C)C(=O)[C@H](O)C3=C(C)[C@@H](OC(=O)[C@H](O)[C@@H](NC(=O)OC(C)(C)C)c4ccccc4)C[C@@](O)([C@@H](OC(=O)c4ccccc4)[C@H]21)C3(C)C` [UM0141830:01, Docetaxel], for which the “Inh (PKA)” value was found to be 0.7441%.

Still in this assay, the particulars now being: counter-screen for NanoLuc interference; 0.5 h, 20 µM; inhibitor.
Regarding `O=C(Nc1ccccc1)Nc1ccc(-c2ccc(C(=O)[C@@H]3CCC[C@H]3C(=O)O)cc2)cc1` [UM0141822:01, A922500], the “Inh (PKA)” value was 32.88%.

Consider `Cc1ccc(C(=O)c2cc(O)c(O)c([N+](=O)[O-])c2)cc1` [UM0141823:01, Tolcapone], for which the “Inh (PKA)” value is 63.96%.

Consider `Nc1ncnc2c1C(=O)N(c1ccc([C@H]3CC[C@H](CC(=O)O)CC3)cc1)CCO2` [UM0141824:01, PF-04620110], for which the “Inh (PKA)” value came out at 1.569%.

Turning to `CC(C)c1cc(-c2n[nH]c(=O)n2-c2ccc3c(ccn3C)c2)c(O)cc1O` [UM0141825:01, Ganetespib (STA-9090)], the “Inh (PKA)” value was determined as 30.75%.

As to `CN(NC(=O)CC(=O)NN(C)C(=S)c1ccccc1)C(=S)c1ccccc1` [UM0141826:01, Elesclomol (STA-4783)], the “Inh (PKA)” value worked out at 1.652%.

As to `N#Cc1ccc(COC[C@H]2O[C@@H](n3c(NCc4ccc(Cl)c(Cl)c4)nc4c(N)ncnc43)[C@H](O)[C@@H]2O)cc1` [UM0141827:01, VER 155008], the “Inh (PKA)” value came to 36.57%.

In the case of `CC[C@@H](C)Nc1cc(C(=O)N[C@H]2C[C@H]3CC[C@@H](C2)N3c2ccc(C(=O)C3CC3)cn2)c(C)cc1C(N)=O` [UM0141828:01, XL-888], the “Inh (PKA)” value amounted to 5.956%.

Regarding `CO[C@@H]1[C@H](OC(=O)/C=C/C=C/C=C/C=C/C(=O)O)CC[C@]2(CO2)[C@H]1[C@@]1(C)O[C@@H]1CC=C(C)C` [UM0141832:01, Fumagillin], the “Inh (PKA)” value was 0.06739%.

Consider `CC(C)[C@H](NC(=O)OCc1ccccc1)C(=O)N[C@H](C=O)Cc1ccccc1` [UM0141833:01, MDL 28170] (Cbz-Val-Phe-aldehyde), for which the “Inh (PKA)” value was 3.195%.

For the molecule `N#Cc1ccc(NCCNCC(=O)N2CCC[C@H]2C#N)nc1` [UM0141834:01, NVP DPP 728 dihydrochloride], the “Inh (PKA)” value is -0.6384%.

As to `Cc1c2oc3c(C)ccc(C(=O)N[C@@H]4C(=O)N[C@H](C(C)C)C(=O)N5CCC[C@H]5C(=O)N(C)CC(=O)N(C)[C@@H](C(C)C)C(=O)O[C@@H]4C)c3nc-2c(C(=O)N[C@@H]2C(=O)N[C@H](C(C)C)C(=O)N3CCC[C@H]3C(=O)N(C)CC(=O)N(C)[C@@H](C(C)C)C(=O)O[C@@H]2C)c(N)c1=O` [UM0141835:01, Actinomycin D] (I: T[dV]P[Sar][NMeV] / II: T[dV]P[Sar][NMeV]; ester I:1-I:C, II:1-II:C; linker I:N-II:N via Actinocin(9to1)), the “Inh (PKA)” value was found to be 21.28%.

Consider `COc1cc(-n2c(=S)[nH]c3ccccc3c2=O)c(Cl)cc1Cl` [UM0141840:01, Mdivi 1], for which the “Inh (PKA)” value came to 54.95%.

`O=C1C2CCN(CC2)C1(CO)CO` [UM0141841:01, PRIMA-1]: the “Inh (PKA)” value is reported as 1.308%.

For `COCC1(CO)C(=O)C2CCN1CC2` (centres unmarked) [UM0141842:01, PRIMA-1MET], the “Inh (PKA)” value stood at 2.921%.

For `COc1ccc(CCc2nc3cc(-c4c(C)noc4C)ccc3n2C[C@H](C)N2CCOCC2)cc1Cl` [UM0141843:01, SGC-CBP30], the “Inh (PKA)” value came to 18.44%.

In the case of `CC(=O)SCC(=O)c1ccc(NS(=O)(=O)c2ccc(OCCCN(C)C)cc2)nc1` [UM0141844:01, KD 5170], the “Inh (PKA)” value is reported as 2.048%.

Take `Cc1cc(C)cc(C(=O)NOCCCCCC(=O)NO)c1` [UM0141845:01, LMK 235]: the “Inh (PKA)” value is -1.396%.

Regarding `Cc1ccc(NC(=O)CCCCCC(=O)Nc2ccccc2N)cc1` [UM0141846:01, TC-H 106], the “Inh (PKA)” value was determined as 6.356%.

`COc1cc2c(NC3CCN(C)CC3)nc(N3CCCN(C)CC3)nc2cc1OCCCN(C)C` [UM0141847:01, UNC 0224]: the “Inh (PKA)” value came to 3.563%.

Turning to `O=S(=O)(NCCSSCCNS(=O)(=O)c1cc(Cl)ccc1Cl)c1cc(Cl)ccc1Cl` [UM0141849:01, KC7F2], the “Inh (PKA)” value is recorded as 19.45%.

In the case of `BrC1C(Br)C(Br)C(Br)C(Br)C1Br` (centres unmarked) [UM0141851:01, 1,2,3,4,5,6-Hexabromocyclohexane], the “Inh (PKA)” value amounted to 6.156%.

On to `C=CC(=O)c1ccc2ccccc2c1` [UM0141853:01, ZM 449829], for which the “Inh (PKA)” value is given as 8.312%.

For the molecule `N#Cc1c(-c2ccccc2)cc(-c2cc(Br)ccc2O)[nH]c1=O` [UM0141854:01, TCS PIM-1 1], the “Inh (PKA)” value was determined as 47.09%.

With `COc1ccc(-n2c(SCCCN3C(=O)c4cccc5cccc(c45)C3=O)nnc2-c2ccncc2)cc1` [UM0141857:01, WIKI4], the “Inh (PKA)” value is on record as 17.99%.

With `O=C(/C=C/c1ccccc1)NC(NC(=S)Nc1ccc(Cl)cc1)C(Cl)(Cl)Cl` (centres unmarked) [UM0141858:01, Sal 003], the “Inh (PKA)” value was determined as 56.23%.

Regarding `O=S(=O)(O)c1ccc2cc(N=Nc3cc(S(=O)(=O)O)c4cccnc4c3O)ccc2c1` [UM0141859:01, NSC 87877], the “Inh (PKA)” value is on record as 48.34%.

Regarding `OC[C@H]1O[C@@H](c2ccc(Cl)c(Cc3ccc(O[C@H]4CCOC4)cc3)c2)[C@H](O)[C@@H](O)[C@@H]1O` [UM0141860:01, Empagliflozin (BI 10773)], the “Inh (PKA)” value was 6.685%.

Regarding `CC1(C)CNc2cc(NC(=O)c3cccnc3NCc3ccncc3)ccc21` [UM0141862:01, Motesanib Diphosphate (AMG-706)], the “Inh (PKA)” value is 38.44%.

Consider `CC(C)(C)c1cc(C(C)(C)C)c(NC(=O)c2c[nH]c3ccccc3c2=O)cc1O` [UM0141863:01, Ivacaftor (VX-770)], for which the “Inh (PKA)” value was determined as 12.69%.

As to `OCCn1cc(-c2ccc3c(c2)CC/C3=N\O)c(-c2ccncc2)n1` [UM0141866:01, GDC-0879], the “Inh (PKA)” value turned out to be 3.817%.

With `CCn1c(-c2nonc2N)nc2c(C#CC(C)(C)O)ncc(OC[C@H]3CCCNC3)c21` [UM0141867:01, GSK690693], the “Inh (PKA)” value came to 29.62%.

With `COc1ccc(-c2ccc3c(N4CCOCC4)nc(N4C[C@@H](C)O[C@@H](C)C4)nc3n2)cc1CO` [UM0141868:01, KU-0063794], the “Inh (PKA)” value came to 1.476%.

As to `Cn1cc(-c2ccc3nnc(C(F)(F)c4ccc5ncccc5c4)n3n2)cn1` [UM0141869:01, JNJ-38877605], the “Inh (PKA)” value is 8.714%.

For the molecule `OCCn1cc(-c2cnc3nnn(Cc4ccc5ncccc5c4)c3n2)cn1` [UM0141870:01, PF-04217903], the “Inh (PKA)” value is recorded as 1.023%.

For the molecule `CCc1c2c(nc3ccc(OC(=O)N4CCC(N5CCCCC5)CC4)cc13)-c1cc3c(c(=O)n1C2)COC(=O)[C@]3(O)CC` [UM0141872:01, Irinotecan], the “Inh (PKA)” value turned out to be 0.8933%.

For `O=C1NC(=O)/C(=C\c2ccc3nccnc3c2)S1` [UM0141873:01, AS-605240], the “Inh (PKA)” value turned out to be 0.3149%.

On to `COC(=O)[C@H](c1ccccc1Cl)N1CCc2sccc2C1` [UM0141874:01, Clopidogrel], for which the “Inh (PKA)” value was determined as 72.93%.

With `C[C@H](Cn1cnc2c(N)ncnc21)OCP(=O)(O)O` [UM0141875:01, Tenofovir], the “Inh (PKA)” value is -0.0985%.

As to `O=P(O)(O)C(O)(Cc1cccnc1)P(=O)(O)O` [UM0141876:01, Risedronate Sodium], the “Inh (PKA)” value is listed as -0.1627%.

As to `CNS(=O)(=O)Cc1ccc2[nH]cc(CCN(C)C)c2c1` [UM0141877:01, Sumatriptan Succinate], the “Inh (PKA)” value is listed as 0.457%.

Take `CCOc1cc(CC(=O)N[C@@H](CC(C)C)c2ccccc2N2CCCCC2)ccc1C(=O)O` [UM0141879:01, Repaglinide]: the “Inh (PKA)” value came to 5.467%.

With `COc1c(N2C[C@@H]3CCCN[C@@H]3C2)c(F)cc2c(=O)c(C(=O)O)cn(C3CC3)c12` [UM0141881:01, Moxifloxacin HCl], the “Inh (PKA)” value was determined as 1.366%.

`Cc1ccc(C(=O)N(CCCN)[C@@H](c2nc3cc(Cl)ccc3c(=O)n2Cc2ccccc2)C(C)C)cc1` [UM0141883:01, Ispinesib (SB-715992)]: the “Inh (PKA)” value is on record as 12.18%.

`COc1ccc(C(CN(C)C)C2(O)CCCCC2)cc1` (centres unmarked) [UM0141884:01, Venlafaxine]: the “Inh (PKA)” value is -0.1027%.

Turning to `CC(c1cc2ccccc2s1)N(O)C(N)=O` (centres unmarked) [UM0141885:01, Zileuton], the “Inh (PKA)” value is given as 2.302%.

With `c1cnc2cc3c(cc2n1)[C@@H]1CNC[C@H]3C1` [UM0141886:01, Varenicline Tartrate], the “Inh (PKA)” value was 1.343%.

On to `COc1ccc(S(=O)(=O)N(C(C)=O)c2ccccc2/C=C/c2cc[n+]([O-])cc2)cc1` [UM0141887:01, HMN-214], for which the “Inh (PKA)” value was found to be 4.215%.

As to `Nc1nc(F)nc2c1ncn2[C@@H]1O[C@H](CO)[C@@H](O)[C@@H]1O` [UM0141888:01, Fludarabine], the “Inh (PKA)” value was 1.153%.

Regarding `CC(=O)Nc1nc(C)c(-c2ccc(Cl)c(S(=O)(=O)NCCO)c2)s1` [UM0141889:01, PIK-93], the “Inh (PKA)” value was 6.642%.

Regarding `CCN1CCN(Cc2ccc(-c3cc4c(N[C@H](C)c5ccccc5)ncnc4[nH]3)cc2)CC1` [UM0141890:01, AEE788 (NVP-AEE788)], the “Inh (PKA)” value was determined as 7.14%.

Turning to `CC(C)CC(=O)Nc1n[nH]c2c1CN(C(=O)C1CCN(C)CC1)C2(C)C` [UM0141891:01, PHA-793887], the “Inh (PKA)” value was 3.326%.

In the case of `Cc1ccc(C(=O)Nc2ccc(CN3CCN(C)CC3)c(C(F)(F)F)c2)cc1C#Cc1cnc2cccnn12` [UM0141892:01, Ponatinib (AP24534)], the “Inh (PKA)” value is 38.47%.
